Source: PubChem BioAssay AID270 (DTP/NCI, 2004)
“And” between values parts separate entries of the source, which are not always exact repeats. Identical values can stand only once. Inconclusive results are not listed.

System: BDF1 mice, s.c. Lewis lung carcinoma, T/C %
Test: NCI In Vivo Anticancer Drug Screen. Data for tumor model Lewis Lung Carcinoma (subcutaneous) in B6D2F1 (BDF1) mice
Procedure, shortened: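 Antitumor effect in vivo is scored from survival or tumor burden, reported as treated relative to vehicle controls.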

[1] = endpoint: median survival time, dose: 1.0 mg/kg/injection, schedule: Q01DX009 (ip), vehicle: saline, higher = longer survival
[2] = endpoint: median survival time, dose: 2.0 mg/kg/injection, schedule: Q01DX009 (ip), vehicle: saline, higher = longer survival
[3] = endpoint: median survival time, dose: 4.0 mg/kg/injection, schedule: Q01DX009 (ip), vehicle: saline, higher = longer survival

S=P(N1CC1)(N1CC1)N1CC1
T/C (endpoint: mean tumor weight, dose: 0.75 mg/kg/injection, schedule: Q01DX011 (ip), vehicle: water, higher = larger tumour): 79 % of control | T/C (endpoint: mean tumor weight, dose: 1.5 mg/kg/injection, schedule: Q01DX011 (ip), vehicle: water, higher = larger tumour): 81 % of control | T/C (endpoint: mean tumor weight, dose: 3.0 mg/kg/injection, schedule: Q01DX011 (ip), vehicle: water, higher = larger tumour): 44 % of control | T/C (endpoint: mean tumor weight, dose: 6.0 mg/kg/injection, schedule: Q01DX011 (ip), vehicle: water, higher = larger tumour): 21 % of control | T/C (endpoint: median survival time, dose: 0.5 mg/kg/injection, schedule: Q01DX009 (ip), vehicle: saline, higher = longer survival): 103 % of control | T/C [1]: 100 % of control | T/C (endpoint: median survival time, dose: 1.0 mg/kg/injection, schedule: Q02DX009 (ip), vehicle: saline, higher = longer survival): 110 % of control | T/C (endpoint: median survival time, dose: 1.5 mg/kg/injection, schedule: Q01DX009 (ip), vehicle: Klucel (hydroxypropylcellulose) (HPC), higher = longer survival): 103 % of control | T/C [2]: 100 % of control | T/C (endpoint: median survival time, dose: 2.0 mg/kg/injection, schedule: Q02DX009 (ip), vehicle: saline, higher = longer survival): 98 % of control | T/C (endpoint: median survival time, dose: 3.0 mg/kg/injection, schedule: Q01DX009 (ip), vehicle: Klucel (hydroxypropylcellulose) (HPC), higher = longer survival): 113 % of control | T/C [3]: 86 % of control | T/C (endpoint: median survival time, dose: 4.0 mg/kg/injection, schedule: Q02DX009 (ip), vehicle: saline, higher = longer survival): 102 % of control | T/C (endpoint: median survival time, dose: 8.0 mg/kg/injection, schedule: Q02DX009 (ip), vehicle: saline, higher = longer survival): 94 % of control

Nc1ccn(C2OC(CO)C(O)C2O)c(=O)n1 (stereo not given)
T/C (endpoint: mean tumor weight, dose: 20.0 mg/kg/injection, schedule: Q01DX011 (ip), vehicle: saline, higher = larger tumour): 55 % of control | T/C (endpoint: mean tumor weight, dose: 40.0 mg/kg/injection, schedule: Q01DX011 (ip), vehicle: saline, higher = larger tumour): 40 % of control | T/C (endpoint: median survival time, dose: 1.0 mg/kg/injection, schedule: Q01DX011 (adlb), vehicle: water, higher = longer survival): 110 % of control | T/C (endpoint: median survival time, dose: 2.0 mg/kg/injection, schedule: Q01DX011 (adlb), vehicle: water, higher = longer survival): 100 % of control | T/C (endpoint: median tumor weight (est.), dose: 2.7 mg/kg/injection, schedule: Q03HX032 (ip), vehicle: saline, higher = larger tumour): 43 % of control | T/C (endpoint: median tumor weight (est.), dose: 4.0 mg/kg/injection, schedule: Q03HX024 (ip), vehicle: saline, higher = larger tumour): 50 % of control | T/C (endpoint: median tumor weight (est.), dose: 4.0 mg/kg/injection, schedule: Q03HX032 (ip), vehicle: saline, higher = larger tumour): 36 % of control | T/C (endpoint: median tumor weight (est.), dose: 5.3 mg/kg/injection, schedule: Q03HX016 (ip), vehicle: saline, higher = larger tumour): 59 % of control | T/C (endpoint: median tumor weight (est.), dose: 6.0 mg/kg/injection, schedule: Q03HX024 (ip), vehicle: saline, higher = larger tumour): 34 % of control | T/C (endpoint: median tumor weight (est.), dose: 8.0 mg/kg/injection, schedule: Q03HX016 (ip), vehicle: saline, higher = larger tumour): 67 % of control | T/C (endpoint: median tumor weight (est.), dose: 10.0 mg/kg/injection, schedule: Q03HX008 (ip), vehicle: saline, higher = larger tumour): 62 % of control | T/C (endpoint: median tumor weight (est.), dose: 10.0 mg/kg/injection, schedule: Q03HX032 (ip), vehicle: saline, higher = larger tumour): 59 % of control | T/C (endpoint: median tumor weight (est.), dose: 12.0 mg/kg/injection, schedule: Q03HX016 (ip), vehicle: saline, higher = larger tumour): 32 % of control | T/C (endpoint: median tumor weight (est.), dose: 12.5 mg/kg/injection, schedule: Q01DX009 (ip), vehicle: saline, higher = larger tumour): 93 % of control | T/C (endpoint: median tumor weight (est.), dose: 15.0 mg/kg/injection, schedule: Q03HX032 (ip), vehicle: saline, higher = larger tumour): 55 % of control | T/C (endpoint: median tumor weight (est.), dose: 16.0 mg/kg/injection, schedule: Q03HX008 (ip), vehicle: saline, higher = larger tumour): 57 % of control | T/C (endpoint: median tumor weight (est.), dose: 20.0 mg/kg/injection, schedule: Q01DX015 (ip), vehicle: saline, higher = larger tumour): 74 % of control | T/C (endpoint: median tumor weight (est.), dose: 20.0 mg/kg/injection, schedule: Q06HX020 (ip), vehicle: saline, higher = larger tumour): 70 % of control | T/C (endpoint: median tumor weight (est.), dose: 20.0 mg/kg/injection, schedule: Q12HX027 (ip), vehicle: saline, higher = larger tumour): 62 % of control | T/C (endpoint: median tumor weight (est.), dose: 22.5 mg/kg/injection, schedule: Q03HX032 (ip), vehicle: saline, higher = larger tumour): 48 % of control | T/C (endpoint: median tumor weight (est.), dose: 24.0 mg/kg/injection, schedule: Q03HX008 (ip), vehicle: saline, higher = larger tumour): 54 % of control | T/C (endpoint: median tumor weight (est.), dose: 25.0 mg/kg/injection, schedule: Q01DX009 (ip), vehicle: saline, higher = larger tumour): 100 % of control | T/C (endpoint: median tumor weight (est.), dose: 26.0 mg/kg/injection, schedule: Q01DX011 (ip), vehicle: saline, higher = larger tumour): 68 % of control | T/C (endpoint: median tumor weight (est.), dose: 30.0 mg/kg/injection, schedule: Q01DX015 (ip), vehicle: saline, higher = larger tumour): 67 % of control | T/C (endpoint: median tumor weight (est.), dose: 30.0 mg/kg/injection, schedule: Q06HX020 (ip), vehicle: saline, higher = larger tumour): 45 % of control | T/C (endpoint: median tumor weight (est.), dose: 36.0 mg/kg/injection, schedule: Q03HX008 (ip), vehicle: saline, higher = larger tumour): 24 % of control | T/C (endpoint: median tumor weight (est.), dose: 38.0 mg/kg/injection, schedule: Q01DX011 (ip), vehicle: saline, higher = larger tumour): 75 % of control | T/C (endpoint: median tumor weight (est.), dose: 45.0 mg/kg/injection, schedule: Q01DX015 (ip), vehicle: saline, higher = larger tumour): 73 % of control | T/C (endpoint: median tumor weight (est.), dose: 45.0 mg/kg/injection, schedule: Q06HX020 (ip), vehicle: saline, higher = larger tumour): 30 % of control | T/C (endpoint: median tumor weight (est.), dose: 50.0 mg/kg/injection, schedule: Q01DX009 (ip), vehicle: saline, higher = larger tumour): 60 % of control | T/C (endpoint: median tumor weight (est.), dose: 150.0 mg/kg/injection, schedule: Q12HX012 (ip), vehicle: saline, higher = larger tumour): 5 % of control | T/C (endpoint: median tumor weight (est.), dose: 220.0 mg/kg/injection, schedule: Q12HX012 (ip), vehicle: saline, higher = larger tumour): 2 % of control | T/C (endpoint: median tumor weight (est.), dose: 250.0 mg/kg/injection, schedule: Q04DX003 (ip), vehicle: saline, higher = larger tumour): 74 % of control | T/C (endpoint: median tumor weight (est.), dose: 1000.0 mg/kg/injection, schedule: Q04DX003 (ip), vehicle: saline, higher = larger tumour): 64 % of control

Cc1nc(N)c(C)c(C(=O)O)n1
T/C (endpoint: median survival time, dose: 50.0 mg/kg/injection, schedule: Q01DX009 (ip), vehicle: water, higher = longer survival): 113 % of control | T/C (endpoint: median survival time, dose: 100.0 mg/kg/injection, schedule: Q01DX009 (ip), vehicle: water, higher = longer survival): 117 % of control | T/C (endpoint: median survival time, dose: 200.0 mg/kg/injection, schedule: Q01DX009 (ip), vehicle: water, higher = longer survival): 116 % of control

NCCCOc1ccc([N+](=O)[O-])cc1Cl
T/C (endpoint: median survival time, dose: 12.5 mg/kg/injection, schedule: Q01DX009 (ip), vehicle: saline, higher = longer survival): 87 % of control | T/C (endpoint: median survival time, dose: 50.0 mg/kg/injection, schedule: Q01DX009 (ip), vehicle: saline, higher = longer survival): 100 % of control and 120 % of control and 121 % of control | T/C (endpoint: median survival time, dose: 100.0 mg/kg/injection, schedule: Q01DX009 (ip), vehicle: saline, higher = longer survival): 87 % of control and 101 % of control and 112 % of control

S=c1nc[nH]c2nc[nH]c12
T/C (endpoint: mean tumor weight, dose: 5.0 mg/kg/injection, schedule: Q01DX011 (ip), vehicle: alkali diluted with saline, higher = larger tumour): 58 % of control | T/C (endpoint: mean tumor weight, dose: 10.0 mg/kg/injection, schedule: Q01DX011 (ip), vehicle: alkali diluted with saline, higher = larger tumour): 60 % of control | T/C (endpoint: mean tumor weight, dose: 12.5 mg/kg/injection, schedule: Q01DX011 (ip), vehicle: alkali diluted with saline, higher = larger tumour): 62 % of control | T/C (endpoint: mean tumor weight, dose: 20.0 mg/kg/injection, schedule: Q01DX011 (ip), vehicle: alkali diluted with saline, higher = larger tumour): 51 % of control | T/C (endpoint: mean tumor weight, dose: 25.0 mg/kg/injection, schedule: Q01DX011 (ip), vehicle: alkali diluted with saline, higher = larger tumour): 66 % of control | T/C (endpoint: mean tumor weight, dose: 50.0 mg/kg/injection, schedule: Q01DX011 (ip), vehicle: alkali diluted with saline, higher = larger tumour): 62 % of control | T/C (endpoint: median survival time, dose: 0.3 mg/kg/injection, schedule: Q01DX000 (ip), vehicle: alkali diluted with saline, higher = longer survival): 106 % of control | T/C [1]: 106 % of control | T/C [2]: 121 % of control | T/C (endpoint: median survival time, dose: 3.0 mg/kg/injection, schedule: Q01DX000 (ip), vehicle: alkali diluted with saline, higher = longer survival): 101 % of control | T/C [3]: 117 % of control | T/C (endpoint: median survival time, dose: 8.0 mg/kg/injection, schedule: Q01DX009 (ip), vehicle: saline, higher = longer survival): 121 % of control | T/C (endpoint: median survival time, dose: 10.0 mg/kg/injection, schedule: Q01DX011 (ip), vehicle: alkali diluted with saline, higher = longer survival): 98 % of control | T/C (endpoint: median survival time, dose: 15.0 mg/kg/injection, schedule: Q01DX009 (ip), vehicle: saline with Tween-80, higher = longer survival): 108 % of control | T/C (endpoint: median survival time, dose: 20.0 mg/kg/injection, schedule: Q01DX011 (ip), vehicle: alkali diluted with saline, higher = longer survival): 91 % of control | T/C (endpoint: median survival time, dose: 30.0 mg/kg/injection, schedule: Q01DX000 (ip), vehicle: alkali diluted with saline, higher = longer survival): 97 % of control | T/C (endpoint: median survival time, dose: 30.0 mg/kg/injection, schedule: Q01DX009 (ip), vehicle: Klucel (hydroxypropylcellulose) (HPC), higher = longer survival): 104 % of control | T/C (endpoint: median survival time, dose: 40.0 mg/kg/injection, schedule: Q01DX011 (ip), vehicle: alkali diluted with saline, higher = longer survival): 89 % of control | T/C (endpoint: median tumor weight (est.), dose: 15.0 mg/kg/injection, schedule: Q01DX009 (ip), vehicle: saline with Tween-80, higher = larger tumour): 79 % of control | T/C (endpoint: median tumor weight (est.), dose: 30.0 mg/kg/injection, schedule: Q01DX009 (ip), vehicle: saline with Tween-80, higher = larger tumour): 72 % of control | T/C (endpoint: median tumor weight (est.), dose: 35.0 mg/kg/injection, schedule: Q01DX011 (ip), vehicle: alkali diluted with saline, higher = larger tumour): 44 % of control | T/C (endpoint: median tumor weight (est.), dose: 51.0 mg/kg/injection, schedule: Q01DX011 (ip), vehicle: alkali diluted with saline, higher = larger tumour): 38 % of control | T/C (endpoint: median tumor weight (est.), dose: 80.0 mg/kg/injection, schedule: Q01DX011 (ip), vehicle: alkali diluted with saline, higher = larger tumour): 70 % of control and 75 % of control and 93 % of control

O=c1c(O)c(-c2ccc(O)c(O)c2)oc2cc(O)ccc12
T/C (endpoint: mean tumor weight, dose: 12.5 mg/kg/injection, schedule: Q01DX011 (ip), vehicle: saline, higher = larger tumour): 99 % of control | T/C (endpoint: mean tumor weight, dose: 25.0 mg/kg/injection, schedule: Q01DX011 (ip), vehicle: saline, higher = larger tumour): 95 % of control | T/C (endpoint: mean tumor weight, dose: 50.0 mg/kg/injection, schedule: Q01DX011 (ip), vehicle: saline, higher = larger tumour): 91 % of control
